Values of other authors, collected in US10973875B2, “Medical agents and uses thereof” (LOKON PHARMA AB, priority 2014, dated 2021).

Conditions: patients treated with gemcitabine

Compound: Nc1ccn([C@@H]2O[C@H](CO)[C@@H](O)C2(F)F)c(=O)n1 [gemcitabine]
- levels of TGF, Tregs and MDSCs: significantly lower levels
